Results from PMC6259618 (Molecules, 2011).
Like-named read-outs stand apart in the source and are kept apart here. Where a SMILES comes first, the peptide text is derived from it. Where no end group is shown, it is not given here. The star is where a group is joined. DOTA = O=C(O)CN1CCN(CC(=O)O)CCN(CC(=O)*)CCN(CC(=O)O)CC1

How the values were obtained:
in vivo = settings: male, BALB/c nu/nu, mouse, iv, total radioactivity; for tissue to tissue ratio at 0.25 h / tissue to tissue ratio at 1 h: Tumor-to-organ ratio
Description: (§1) Male 6-week-old BALB/c nu/nu mice were obtained from Charles River WIGA (Sulzfeld, Germany) and housed in VentiRacks. For inoculation of the tumors, a Matrigel matrix/cell (5 × 10^6 cells) suspension was injected subcutaneously into the flank of the animals. Tumors were grown up to a size of ~1.0 cm^3. ^111In-labeled or ^131I-labeled peptide was injected via the tail vein into the animals, carrying PC-3 prostate tumors. At defined time points post injection, the mice were sacrificed. Tumor, blood and selected tissues (heart, lung, spleen, liver, kidney, muscle, intestinum and brain) were removed, drained of blood, weighed, and the radioactivity was measured with a γ-counter (LB 951G, Berthold Technologies). The percentage injected dose per gram of tissue (%ID/g) was calculated. All animal experiments were carried out in conformity with the German law for protection of animals and are in compliance with European laws.

[1] = tested on: human prostate carcinoma PC-3 cells; assay type: binding; settings: for Binding inhibition by unlabeled DUP-1: ^125I-labeled ligand on PC-3 cells, competitor unlabeled DUP-1 at 10^-4 M
Description: The human prostate carcinoma cell line PC-3 (American Type Culture Collection, Manassas, VA, USA) was cultivated at 37 °C in a 5% CO2 incubator in RPMI 1640 with Glutamax containing 10% FCS (Invitrogen, Karlsruhe, Germany) and 25 mmol/L HEPES.
200,000 cells were seeded in 6-well plates and cultivated for 24 hours. The medium was replaced by 1 mL fresh medium (without FCS). ^125I-labeled or ^111In-labeled peptide was added to the cell culture (1–2 × 10^6 cpm per well) and incubated for various time periods. Thereafter, the cells were washed thrice with 1 mL phosphate buffer saline (PBS) and subsequently lysed with 0.3 mol/L NaOH (0.5 mL). Radioactivity was measured with a γ-counter and calculated as percentage applied dose per 10^6 cells. For competition experiments co-incubation was performed with the unlabeled peptide at a defined concentration. If BSA or dry milk powder was used as blocking agents, it was added to a final concentration of 1% in medium without FCS.

[2] = tested on: human prostate carcinoma PC-3 cells; settings: for Incubation time to maximal radioligand binding / binding saturation: ^111In- or ^125I-labeled peptide, medium without FCS, gamma-counter; for Binding as % of the native molecule (DUP-1) capacity: ^125I-labeled
Description: Direct radiolabeling with ^125I was performed on the tyrosine moiety using the chloramine-T method. A 10^−3 M aqueous solution of the respective peptide (5–25 µL, 5–25 nmol) was added to 0.25 M phosphate buffer (25 µL, pH 7.5). A radioactivity amount of 1–10 MBq ^125I- or ^131I- was added to this mixture and vortexed for 30 sec. The labeling reaction was quenched by adding 10 µL of a saturated aqueous methionine solution. The radiolabeled peptide was purified by HPLC on a Lichrosorb RP-select B 5 µm, 250 × 4 mm column using a linear solvent gradient system.
Radiolabeling was performed by complexation with ^111In-chloride. One microliter of a 10^−3 M solution of DOTA-Lys-DUP-1 in 50% dimethyl sulfoxide in water was mixed with sodium acetate buffer (25 µL, pH 5), and 10 MBq ^111InCl3 (PerkinElmer, Rodgau) was added. The solution was heated at 95 °C for 25 min. Quality control was performed by HPLC showing a radiochemical purity >95%.

[3] = native DUP-1, not among the peptides tested here; earlier work; cited from earlier work
PC-3 tumors [4] = settings: cited from earlier work; for Tumor binding: iodinated native ligand
Description: A linear peptide with affinity for prostate carcinoma was identified in our group using phage display techniques. The peptide, […], was isolated on prostate-specific membrane antigen-negative cells and evaluated both in vitro and in vivo. Chemical synthesized […] was tested for binding affinity, specificity, kinetics and internalization. In vivo tumor accumulation and organ distribution was evaluated in a nude mouse model, carrying subcutaneously human prostate carcinoma cells. […] A possible explanation for the rapid clearance is the higher polarity of the DOTA conjugate.

[5] = tested on: human prostate carcinoma PC-3 cells; design: method as in PMID 15671538; settings: ^125I-DUP-1, 'has been shown to be'; earlier work; cited from earlier work
human serum = settings: 37 °C, up to 6 hours
PC-3 tumors [6] = assay: in vivo; settings: mouse
Description: as §1

[7] = PC-3 cells, after 10 min incubation
[8] = PC-3 cells, after 60 min incubation
[9] = ^125I-labeled fragments, PC-3 cells, after binding saturation

Compound: C[C@H](NC(=O)[C@H](CCCNC(=N)N)NC(=O)[C@H](CC(N)=O)NC(=O)[C@@H]1CCCN1C(=O)[C@H](CCCNC(=N)N)NC(=O)[C@@H](N)Cc1ccccc1)C(=O)N[C@@H](CCC(N)=O)C(=O)N[C@@H](CC(=O)O)C(=O)N[C@@H](Cc1ccc(O)cc1)C(=O)N[C@@H](CC(N)=O)C(=O)N[C@H](C(=O)N[C@@H](CC(N)=O)C(=O)N[C@@H](CCCCNC(=O)CN1CCN(CC(=O)O)CCN(CC(=O)O)CCN(CC(=O)O)CC1)C(N)=O)[C@@H](C)O (111In complex, metal not drawn) [DOTA-Lys-DUP-1] (H-FRPNRAQDYNTNK(DOTA)-NH2)
- tissue uptake at 0.25 h (in vivo): 2.1 %ID/g
- tissue uptake at 1 h (in vivo): 0.14 %ID/g
- tissue to tissue ratio at 0.25 h (in vivo; Blood): 0.79 ± 0.198
- tissue to tissue ratio at 1 h (in vivo; Blood): 3.45 ± 0.261
- tissue to tissue ratio at 0.25 h (in vivo; Brain): 18.6 ± 4.05
- tissue to tissue ratio at 1 h (in vivo; Brain): 14.8 ± 4.73
- tissue to tissue ratio at 0.25 h (in vivo; Heart): 1.99 ± 0.459
- tissue to tissue ratio at 1 h (in vivo; Heart): 7.79 ± 0.578
- tissue to tissue ratio at 0.25 h (in vivo; Intestine): 2.46 ± 0.391
- tissue to tissue ratio at 1 h (in vivo; Intestine): 4.79 ± 2.13
- tissue to tissue ratio at 0.25 h (in vivo; Kidney): 0.124 ± 0.028
- tissue to tissue ratio at 1 h (in vivo; Kidney): 0.063 ± 0.012
- tissue to tissue ratio at 0.25 h (in vivo; Liver): 2.35 ± 0.196
- tissue to tissue ratio at 1 h (in vivo; Liver): 3.81 ± 0.07
- tissue to tissue ratio at 0.25 h (in vivo; Lung): 0.823 ± 0.167
- tissue to tissue ratio at 1 h (in vivo; Lung): 2.9 ± 0.142
- tissue to tissue ratio at 0.25 h (in vivo; Muscle): 3.39 ± 0.833
- tissue to tissue ratio at 1 h (in vivo; Muscle): 8.05 ± 6.85
- tissue to tissue ratio at 0.25 h (in vivo; Spleen): 3.02 ± 0.793
- tissue to tissue ratio at 1 h (in vivo; Spleen): 5.71 ± 1.09
- tissue to tissue ratio at 0.25 h (in vivo; Tumor): 1
- tissue to tissue ratio at 1 h (in vivo; Tumor): 1
- IC50 ([1]; 24 h): 3.3 µM

Compound: C-FRPNRAQDYNTN-C (disulfide) [cDUPc]
- Binding inhibition by unlabeled DUP-1 [1]: up to 90%
- Incubation time to maximal radioligand binding / binding saturation ([2]; PC-3 cells): 60 min
- Binding as % of the native molecule (DUP-1) capacity [2, 7]: about 7%
- Binding as % of the native molecule (DUP-1) capacity [2, 8]: about 19%

Compound: FRPNRAQDYNTN [DUP-1, tested ^125I-/^131I-labeled]
- Serum half life [3]: 2 min
- Tumor binding (PC-3 tumors [4]; 15 min circulation in mice): about 7%
- Tumor binding (PC-3 tumors [4]; 45 min circulation in mice): about 4%
- Kidney radioactivity (PC-3 tumors [4]; iodinated peptide, 15 min): about 8 % ID/g
- Increase of radioligand-binding in the prostate tumor compared to normal prostate tissue (PC-3 tumors [4]; organ distribution, nude mouse model): up to 300%
- Incubation time to maximal radioligand binding / binding saturation ([2]; PC-3 cells): 5 min
- Binding, percentage applied dose per 10^6 cells ([2]; PC-3 cells, radiolabeled peptide, maximal binding): about 12 % applied dose per 10^6 cells
- IC50 [5]: 0.177 µM

Compound: FRPNRAY [DUP-1-6-Y]
- Binding as % of the leader peptide DUP-1 [2]: about 82%

Compound: H-FRPNRAQDYNTNK(DOTA)-NH2 (SMILES C[C@H](NC(=O)[C@H](CCCNC(=N)N)NC(=O)[C@H](CC(N)=O)NC(=O)[C@@H]1CCCN1C(=O)[C@H](CCCNC(=N)N)NC(=O)[C@@H](N)Cc1ccccc1)C(=O)N[C@@H](CCC(N)=O)C(=O)N[C@@H](CC(=O)O)C(=O)N[C@@H](Cc1ccc(O)cc1)C(=O)N[C@@H](CC(N)=O)C(=O)N[C@H](C(=O)N[C@@H](CC(N)=O)C(=O)N[C@@H](CCCCNC(=O)CN1CCN(CC(=O)O)CCN(CC(=O)O)CCN(CC(=O)O)CC1)C(N)=O)[C@@H](C)O)
- cleaved bond (human serum): phenylalanine1-R2, first_seen, 5 min

Compound: NRAQDY [DUP-4-9]
- Activity in kidneys (PC-3 tumors [6]): 15.48 % ID/g
- Radioactivity in blood (PC-3 tumors [6]): about 5.5 % ID/g
- IC50 ([1]; ^125I-labeled DUP-4-9 on PC-3 cells, unlabeled peptide as competitor, read-out: IC50): 3.5 µM
- Binding inhibition by unlabeled DUP-1 [1]: about 99%
- Incubation time to maximal radioligand binding / binding saturation ([2]; PC-3 cells): 30 min
- Binding as % of the leader peptide DUP-1 [2, 9]: about 70%

Compound: QDYNTN [DUP-7-12]
- Binding as % of the leader peptide DUP-1 [2, 9]: reduced binding capacity to the background level

Compound: fRPNRAQDYNTN [dPhe-DUP-1]
- Binding inhibition by unlabeled DUP-1 [1]: up to 94%
- Incubation time to maximal radioligand binding / binding saturation ([2]; PC-3 cells): 60 min
- In vitro binding capacity relative to DUP-1 ([2]; PC-3 cells, summary in discussion, incubation time not printed at place): about 25%
- Binding as % of the native molecule (DUP-1) capacity [2, 7]: about 8.5%
- Binding as % of the native molecule (DUP-1) capacity [2, 8]: about 25%
